Assay [1] deals with human recombinant AChE (hAChE; E.C. 3.1.1.7) (Homo sapiens, UniProt P22303). The assay can be described thus: biochemical. The note with it: for IC50: human recombinant AChE, Ellman's method, phosphate buffer pH 7.4, mean of three independent determinations ± SD; for SI (selectivity index for hAChE): ratio of IC50 hBChE towards IC50 hAChE. A general note: DTNB colorimetry detects thiols as they appear.

For assay [2], the target named is human plasmatic BChE (hBChE; E.C. 3.1.1.8) (Homo sapiens, UniProt P06276). The assay can be described thus: biochemical.
[3] abbreviates: human plasmatic BChE, Ellman's method, phosphate buffer pH 7.4, mean of three independent determinations ± SD, read-out: IC50 (µM) ± SD hBChE.

Counter-ions that a name gives are not always drawn. Like-named read-outs stand apart in the source and are kept apart here.

Sequence of human recombinant AChE (hAChE; E.C. 3.1.1.7) (P22303 32-614): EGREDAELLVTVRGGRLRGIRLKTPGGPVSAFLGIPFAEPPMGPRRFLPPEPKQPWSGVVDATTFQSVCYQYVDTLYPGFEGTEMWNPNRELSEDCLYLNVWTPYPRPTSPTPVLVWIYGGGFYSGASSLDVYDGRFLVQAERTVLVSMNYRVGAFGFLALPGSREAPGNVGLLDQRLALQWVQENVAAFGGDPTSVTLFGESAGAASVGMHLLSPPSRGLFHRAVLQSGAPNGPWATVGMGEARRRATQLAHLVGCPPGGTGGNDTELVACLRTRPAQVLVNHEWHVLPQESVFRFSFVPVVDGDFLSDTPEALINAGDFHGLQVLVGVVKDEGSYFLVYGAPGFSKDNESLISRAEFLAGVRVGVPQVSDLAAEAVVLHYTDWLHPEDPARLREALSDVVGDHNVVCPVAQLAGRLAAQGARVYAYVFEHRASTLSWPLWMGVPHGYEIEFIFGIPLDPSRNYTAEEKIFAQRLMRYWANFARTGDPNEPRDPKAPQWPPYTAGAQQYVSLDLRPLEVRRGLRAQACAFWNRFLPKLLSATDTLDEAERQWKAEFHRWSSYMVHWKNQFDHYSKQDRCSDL
Sequence of human plasmatic BChE (hBChE; E.C. 3.1.1.8) (P06276 29-602): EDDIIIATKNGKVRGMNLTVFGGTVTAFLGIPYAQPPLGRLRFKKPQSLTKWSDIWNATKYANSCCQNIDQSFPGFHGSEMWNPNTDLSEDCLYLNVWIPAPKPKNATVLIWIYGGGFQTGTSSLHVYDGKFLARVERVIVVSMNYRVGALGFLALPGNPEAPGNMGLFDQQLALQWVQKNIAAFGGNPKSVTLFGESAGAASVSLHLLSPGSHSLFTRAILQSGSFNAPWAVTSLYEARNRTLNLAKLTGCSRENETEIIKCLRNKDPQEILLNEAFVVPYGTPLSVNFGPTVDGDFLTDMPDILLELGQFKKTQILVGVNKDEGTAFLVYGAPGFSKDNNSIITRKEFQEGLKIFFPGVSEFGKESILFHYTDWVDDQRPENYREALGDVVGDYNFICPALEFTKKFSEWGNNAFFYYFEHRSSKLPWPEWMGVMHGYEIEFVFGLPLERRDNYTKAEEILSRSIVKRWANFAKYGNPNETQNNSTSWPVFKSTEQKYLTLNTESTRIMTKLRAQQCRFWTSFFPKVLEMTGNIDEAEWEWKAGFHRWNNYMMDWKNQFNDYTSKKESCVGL

For `COc1ccc2nc3c(c(NCCN)c2c1)CCCC3` [Compound 3, N-(7-Methoxy-1,2,3,4-tetrahydroacridin-9-yl)ethane-1,2-diamine], in assay [1], the half-inhibitory concentration (IC50) (as a rule, the concentration that gives 50% inhibition) worked out at 5.32 ± 1.04 µM and the “SI (selectivity index for hAChE)” value turned out to be 12.1. Besides, the IC50 in assay [2] (setting [3]) is 64.4 ± 10.8 µM.

Turning to `COc1ccc2nc3c(c(NCCCN)c2c1)CCCC3` [Compound 4, N-(7-Methoxy-1,2,3,4-tetrahydroacridin-9-yl)propane-1,3-diamine], in assay [1], the IC50 amounted to 1.93 ± 0.38 µM and the “SI (selectivity index for hAChE)” value came to 25.8. Also, in assay [2] (setting [3]), the IC50 was determined as 49.8 ± 8.31 µM.

As to `COc1ccc2nc3c(c(NCCCCN)c2c1)CCCC3` [Compound 5, N-(7-Methoxy-1,2,3,4-tetrahydroacridin-9-yl)butane-1,4-diamine], the IC50 turned out to be 1.42 ± 0.28 µM in assay [1] and 9.22 ± 1.54 µM in assay [2] (setting [3]). Moreover, in assay [1], the “SI (selectivity index for hAChE)” value is reported as 6.5.

Consider `COc1ccc2nc3c(c(NCCCCCN)c2c1)CCCC3` [Compound 6, N-(7-Methoxy-1,2,3,4-tetrahydroacridin-9-yl)pentane-1,5-diamine], for which, in assay [1], the IC50 came out at 3.44 ± 0.67 µM and the “SI (selectivity index for hAChE)” value is on record as 8.6. Further, the half-inhibitory concentration (IC50) in assay [2] (setting [3]) was determined as 29.6 ± 4.95 µM.

Regarding `COc1ccc2nc3c(c(NCCCCCCN)c2c1)CCCC3` [Compound 7, N-(7-Methoxy-1,2,3,4-tetrahydroacridin-9-yl)hexane-1,6-diamine], in assay [1], the IC50 amounted to 0.21 ± 0.04 µM and the “SI (selectivity index for hAChE)” value is 51.6. Also, the IC50 in assay [2] (setting [3]) was determined as 10.8 ± 1.81 µM.

`COc1ccc2nc3c(c(NCCCCCCCN)c2c1)CCCC3` [Compound 8, N-(7-Methoxy-1,2,3,4-tetrahydroacridin-9-yl)heptane-1,7-diamine]: the IC50 in assay [1] was 0.86 ± 0.17 µM; in assay [2] (setting [3]) it was 7.26 ± 1.21 µM. In assay [1], the “SI (selectivity index for hAChE)” value is 8.4.

Consider `COc1ccc2nc3c(c(NCCCCCCCCN)c2c1)CCCC3` [Compound 9, N-(7-Methoxy-1,2,3,4-tetrahydroacridin-9-yl)octane-1,8-diamine], for which the IC50 stood at 0.47 ± 0.09 µM in assay [1] and 10.1 ± 1.68 µM in assay [2] (setting [3]). The “SI (selectivity index for hAChE)” value in assay [1] is given as 21.4.

Take `S=C=NC12CC3CC(CC(C3)C1)C2` [Compound 10, 1-Adamantyl isothiocyanate, reference compound]: the IC50 in assay [1] was found to be 25 ± 4.87 µM; in assay [2], 96.9 ± 16.2 µM. For the same compound, in assay [1], the “SI (selectivity index for hAChE)” value amounted to 3.9.

With `COc1ccc2nc3c(c(NCCNC(=S)NC45CC6CC(CC(C6)C4)C5)c2c1)CCCC3` [Compound 11, 1-Adamantyl-3-(2-(7-methoxy-1,2,3,4-tetrahydroacridin-9-yl-amino)ethyl)thiourea 2,3-dihydroxysuccinate], in assay [1], the IC50 worked out at 5.02 ± 0.98 µM and the “SI (selectivity index for hAChE)” value is listed as 1.2. Moreover, in assay [2] (setting [3]), the IC50 is 6.02 ± 1.01 µM.

With `COc1ccc2nc3c(c(NCCCNC(=S)NC45CC6CC(CC(C6)C4)C5)c2c1)CCCC3` [Compound 12], in assay [1], the IC50 was found to be 0.53 ± 0.1 µM and the “SI (selectivity index for hAChE)” value worked out at 2.6. For the same compound, the IC50 in assay [2] (setting [3]) is 1.39 ± 0.23 µM.

For the compound `COc1ccc2nc3c(c(NCCCCNC(=S)NC45CC6CC(CC(C6)C4)C5)c2c1)CCCC3` [Compound 13], in assay [1], the IC50 came to 2.04 ± 0.39 µM and the “SI (selectivity index for hAChE)” value was found to be 0.5. In assay [2] (setting [3]), the IC50 turned out to be 0.98 ± 0.16 µM.

`COc1ccc2nc3c(c(NCCCCCNC(=S)NC45CC6CC(CC(C6)C4)C5)c2c1)CCCC3` [Compound 14]: the IC50 was 0.47 ± 0.09 µM in assay [1] and 0.11 ± 0.02 µM in assay [2] (setting [3]). Besides, the “SI (selectivity index for hAChE)” value in assay [1] turned out to be 0.2.

Regarding `COc1ccc2nc3c(c(NCCCCCCNC(=S)NC45CC6CC(CC(C6)C4)C5)c2c1)CCCC3` [Compound 15], in assay [1], the IC50 was 2.09 ± 0.4 µM and the “SI (selectivity index for hAChE)” value was 0.2. For the same compound, in assay [2] (setting [3]), the IC50 came to 0.33 ± 0.05 µM.

For the compound `COc1ccc2nc3c(c(NCCCCCCCNC(=S)NC45CC6CC(CC(C6)C4)C5)c2c1)CCCC3` [Compound 16, 1-Adamantyl-3-(2-(7-methoxy-1,2,3,4-tetrahydroacridin-9-yl-amino)heptyl)thiourea 2,3-dihydroxy-succinate], in assay [1], the IC50 amounted to 3.47 ± 0.67 µM and the “SI (selectivity index for hAChE)” value worked out at 0.04. Also, in assay [2] (setting [3]), the IC50 was determined as 0.15 ± 0.02 µM.

`COc1ccc2nc3c(c(NCCCCCCCCNC(=S)NC45CC6CC(CC(C6)C4)C5)c2c1)CCCC3` [Compound 17]: the IC50 in assay [1] worked out at 1.62 ± 0.31 µM; in assay [2] (setting [3]) it was 0.26 ± 0.04 µM. Also, the “SI (selectivity index for hAChE)” value in assay [1] stood at 0.2.

As to `NC12CC3CC(CC(C3)C1)C2` [amantadine, 1-adamantylamine hydrochloride, reference compound], in assay [2] (setting [3]), the IC50 turned out to be 103 ± 17.1 µM.

The values are drawn from publication PMC6270602 (Molecules, 2013).
